Measured values: BigSolDB 2.1

O=C(/C=C/c1ccc(O)c(O)c1)O[C@H](Cc1ccc(O)c(O)c1)C(=O)O
solubility (mole fraction)
Settings | 293.15 K | 298.15 K | 303.15 K | 308.15 K | 313.15 K
in ethyl acetate | 0.0345 | 0.0466 | 0.0506 | 0.0588 | 0.0722
in methyl acetate | 0.0363 | 0.049 | 0.0533 | 0.0619 | 0.0764
